pIC50: −log10 of the molar value. Several values for one entry are separate records, joined by “and”; a condition that tells them apart may be missing. Identical values can stand only once.
Legend:
[1] = target: Glycogen synthase kinase-3 beta (Homo sapiens, UniProt P49841); test: TR-FRET Assay
Outline: (§1)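 Signal is measured as TR-FRET between a terbium anti-phospho-Ser641 antibody and streptavidin-d2, added after an EDTA quench. Compounds are preincubated 30 min in assay buffer.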

[2] = target: Glycogen synthase kinase-3 alpha (Homo sapiens, UniProt P49840); test: TR-FRET Assay
Outline: as §1

Glycogen synthase kinase-3 alpha, sequence (P49840 whole entry): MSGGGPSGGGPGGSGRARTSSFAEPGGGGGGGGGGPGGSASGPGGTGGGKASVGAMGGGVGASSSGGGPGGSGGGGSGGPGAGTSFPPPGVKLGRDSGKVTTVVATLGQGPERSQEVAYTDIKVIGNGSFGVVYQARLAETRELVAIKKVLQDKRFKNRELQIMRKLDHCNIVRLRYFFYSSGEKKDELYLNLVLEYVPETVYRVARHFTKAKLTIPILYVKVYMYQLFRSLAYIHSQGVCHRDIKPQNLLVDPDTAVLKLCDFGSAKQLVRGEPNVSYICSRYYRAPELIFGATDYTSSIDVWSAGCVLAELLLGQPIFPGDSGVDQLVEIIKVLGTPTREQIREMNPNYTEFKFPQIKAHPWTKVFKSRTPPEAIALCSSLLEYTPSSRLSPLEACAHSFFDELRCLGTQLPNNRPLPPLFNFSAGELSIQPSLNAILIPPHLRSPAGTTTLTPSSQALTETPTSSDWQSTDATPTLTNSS
Glycogen synthase kinase-3 beta, sequence (P49841 whole entry): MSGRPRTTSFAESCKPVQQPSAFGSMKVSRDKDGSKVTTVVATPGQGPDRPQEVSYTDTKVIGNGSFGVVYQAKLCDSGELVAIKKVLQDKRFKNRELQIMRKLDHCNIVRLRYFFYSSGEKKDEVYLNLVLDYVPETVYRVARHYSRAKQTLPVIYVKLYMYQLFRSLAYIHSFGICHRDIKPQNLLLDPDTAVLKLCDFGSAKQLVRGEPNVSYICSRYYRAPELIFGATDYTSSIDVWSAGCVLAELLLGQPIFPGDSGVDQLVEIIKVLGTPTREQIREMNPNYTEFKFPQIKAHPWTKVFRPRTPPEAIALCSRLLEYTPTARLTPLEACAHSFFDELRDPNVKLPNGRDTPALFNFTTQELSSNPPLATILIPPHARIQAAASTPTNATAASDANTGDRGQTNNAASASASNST

CC1(C)CC(=O)C2=C(C1)NC1=C(CN=N1)C21CCN(S(=O)(=O)c2cccc3c2CCCC3)CC1 [US20250313563, Compound 947470]
pIC50 [1]: > 7.00 | pIC50 [2]: > 7.00

Cc1ccc(C)c(S(=O)(=O)N2CCC3(CC2)C2=C(N=NC2)NC2=C3C(=O)CC(C)(C)C2)c1 [US20250313563, Compound 947471]
pIC50 [1]: 6.00 to 7.00 | pIC50 [2]: > 7.00

CC1(C)CC(=O)C2=C(C1)NC1=C(CN=N1)C21CCN(S(=O)(=O)c2cn3c(n2)CCCC3)CC1 [US20250313563, Compound 947472]
pIC50 [1]: 6.00 to 7.00 | pIC50 [2]: > 7.00

CC(C)c1ccccc1S(=O)(=O)N1CCC2(CC1)C1=C(N=NC1)NC1=C2C(=O)CC(C)(C)C1 [US20250313563, Compound 947473]
pIC50 [1]: 6.00 to 7.00 | pIC50 [2]: 6.00 to 7.00

CC1(C)CC(=O)C2=C(C1)NC1=C(CN=N1)C21CCN(S(=O)(=O)c2cnn3c2CCCC3)CC1 [US20250313563, Compound 947474]
pIC50 [1]: > 7.00 | pIC50 [2]: > 7.00

Cc1cc(S(=O)(=O)N2CCC3(CC2)C2=CN=NC2NC2=C3C(=O)CC(C)(C)C2)ccc1Cl (configuration not stated) [US20250313563, Compound 947475]
pIC50 [1]: > 7.00 | pIC50 [2]: > 7.00

CC1(C)CC(=O)C2=C(C1)NC1=C(CN=N1)C21CCN(S(=O)(=O)C2=CC=C3CC=CC=C3N2)CC1 [US20250313563, Compound 947476]
pIC50 [1]: > 7.00 | pIC50 [2]: > 7.00

COCCn1cc(S(=O)(=O)N2CCC3(CC2)C2=C(N=NC2)NC2=C3C(=O)CC(C)(C)C2)cn1 [US20250313563, Compound 947477]
pIC50 [1]: > 7.00 | pIC50 [2]: > 7.00

COc1ccc(S(=O)(=O)N2CCC3(CC2)C2=C(N=NC2)NC2=C3C(=O)CC(C)(C)C2)cc1F [US20250313563, Compound 947478]
pIC50 [1]: > 7.00 | pIC50 [2]: > 7.00

CC1(C)CC(=O)C2=C(C1)NC1=C(CN=N1)C21CCN(S(=O)(=O)c2ccccc2C#N)CC1 [US20250313563, Compound 947479]
pIC50 [1]: > 7.00 | pIC50 [2]: > 7.00

CC1(C)CC(=O)C2=C(C1)NC1=C(CN=N1)C21CCN(S(=O)(=O)c2cnc3n2CCCC3)CC1 [US20250313563, Compound 947480]
pIC50 [1]: > 7.00 | pIC50 [2]: > 7.00

Cc1cc(S(=O)(=O)N2CCC3(CC2)C2=C(N=NC2)NC2=C3C(=O)CC(C)(C)C2)ccn1 [US20250313563, Compound 947481]
pIC50 [1]: > 7.00 | pIC50 [2]: > 7.00

Cc1ccc(S(=O)(=O)N2CCC3(CC2)C2=C(N=NC2)NC2=C3C(=O)CC(C)(C)C2)cn1 [US20250313563, Compound 947482]
pIC50 [1]: > 7.00 | pIC50 [2]: > 7.00

CC1(C)CC(=O)C2=C(C1)NC1=C(CN=N1)C21CCN(S(=O)(=O)c2cnn3c2OCCC3)CC1 [US20250313563, Compound 947483]
pIC50 [1]: > 7.00 | pIC50 [2]: > 7.00

CC1(C)CC(=O)C2=C(C1)NC1=C(CN=N1)C21CCN(S(=O)(=O)c2c(F)cc(F)cc2F)CC1 [US20250313563, Compound 947484]
pIC50 [1]: > 7.00 | pIC50 [2]: > 7.00

CC1(C)CC(=O)C2=C(C1)NC1=C(CN=N1)C21COC2(CN(C(=O)C(F)F)C2)C1 (configuration not stated) [US20250313563, Compound 947485]
pIC50 [1]: > 7.00 | pIC50 [2]: > 7.00

CC1(C)CC(=O)C2=C(C1)NC1=C(CN=N1)C21COC2(CN(C(=O)C3CCC(F)C3)C2)C1 (configuration not stated) [US20250313563, Compound 947486]
pIC50 [1]: > 7.00 | pIC50 [2]: > 7.00

CC1(C)CC(=O)C2=C(C1)NC1=C(CN=N1)C21COC2(CN(C(=O)C3(F)CC3)C2)C1 (configuration not stated) [US20250313563, Compound 947487]
pIC50 [1]: > 7.00 | pIC50 [2]: > 7.00

CCC1(c2cccc(-c3ccnc(C(C)(C)C)c3)c2)C2=CN=NC2NC2=C1C(=O)CC(C)(C)C2 (configuration not stated) [US20250313563, Compound 947490]
pIC50 [1]: 5.30 to 6.00 | pIC50 [2]: 6.00 to 7.00

CCC1(c2cccc(-c3c(C)cnn3C)c2)C2=CN=NC2NC2=C1C(=O)CC(C)(C)C2 (configuration not stated) [US20250313563, Compound 947491]
pIC50 [1]: > 7.00 | pIC50 [2]: > 7.00

CCC1(c2cccc(-c3cnn(C)n3)c2)C2=CN=NC2NC2=C1C(=O)CC(C)(C)C2 (configuration not stated) [US20250313563, Compound 947492]
pIC50 [1]: 5.30 to 6.00 | pIC50 [2]: > 7.00

CCc1cc(-c2cccc(C3(CC)C4=CN=NC4NC4=C3C(=O)CC(C)(C)C4)c2)ccn1 (configuration not stated) [US20250313563, Compound 947493]
pIC50 [1]: 6.00 to 7.00 | pIC50 [2]: > 7.00

CCC1(c2cccc(-c3cnn4c3CCC4)c2)C2=CN=NC2NC2=C1C(=O)CC(C)(C)C2 (configuration not stated) [US20250313563, Compound 947494]
pIC50 [1]: 6.00 to 7.00 | pIC50 [2]: > 7.00

CC[C@]1(c2cccc(Cc3ncccn3)c2)C2=CN=NC2NC2=C1C(=O)CC(C)(C)C2 (some centres not stated) [US20250313563, Compound 947498]
pIC50 [1]: > 7.00 | pIC50 [2]: > 7.00

CC[C@@]1(c2cccc(Cc3ncccn3)c2)C2=CN=NC2NC2=C1C(=O)CC(C)(C)C2 (some centres not stated) [US20250313563, Compound 947499]
pIC50 [1]: < 5.30 | pIC50 [2]: 5.30 to 6.00 and < 5.30

CC[C@]1(c2cccc(-c3c(F)cncc3OC)c2)C2=CN=NC2NC2=C1C(=O)CC(C)(C)C2 (some centres not stated) [US20250313563, Compound 947511]
pIC50 [1]: > 7.00 | pIC50 [2]: > 7.00
